Measurements: patent US9273038B2, “Solid forms of an ion channel modulator” (Gilead Sciences, Inc., priority 2014, dated 2016)
Where two headings read alike, the source gives them in different places.

Key:
Type in all cases: physicochemical
[1] = Dynamic vapor sorption (DVS) analysis
Description: The solids with unique XRPD patterns were characterized by DSC, TGA, ^1H NMR, KF and DVS. All XRPD patterns were obtained in the experimental setting as follows: 45 kV, 40 mA, Kα1=1.5406 Å, scan range 2 to 40°, step size 0.0167°, counting time: 15.24 s. DSC and TGA analyses were performed using 10° C./min heating rate over the 20 to 350° C. temperature range.

[2] = Hydrate screen in ethanol/water and isopropanol/water: solubility and relative form stability; conditions: for Form III Solubility mg/g (1 day): from 50:50 w/w mixture of Form I & III
Description: A hydrate screen starting from Form I was also conducted to evaluate whether hydrates of Compound I exist. The hydrate screen was conducted in ethanol/water (Table 6) and isopropanol/water (Table 7) mixtures, and in both cases, a new polymorph of Compound I was discovered (denoted as Form III).
From the initial hydrate screens presented in Table 6 and Table 7 no apparent trends were observed. In this case, all slurries of Form I in EtOH/water or IPA/water mixtures remained unchanged after 2 weeks (Table 8 and Table 9). Since Form III has been observed previously under the same conditions, it was suspected that the lack of form conversion is mainly due to slow kinetics. […] Attempts to determine the relative stability between Forms I and III at lower water activities were unsuccessful since Form I either was too soluble or oiled out at water activities of 0.8 or below.

[3] = Stable form screen of Compound I Form IV (slurry at room temperature); conditions: for solubility at 24 h: slurry of the solid in solvent, thermodynamic from solid, read-out: Solubility after 24 h
Description: Compound I Form IV (about 50 mg) was slurried in 0.5-1 mL of solvent and allowed to stir at room temperature for 2 weeks. […] Similar results were observed after 2 weeks of equilibration (Table 15).

[4] = Thermal stability of Compound I Form IV under vacuum at 45° C. (XRPD, HPLC); conditions: for HPLC (% AN) / XRPD / HPLC (% ES): drying under vacuum at 45° C.
Description: Drying study was also performed of Compound I Form IV under vacuum at 45° C. in an attempt to determine the chemical stability of this material by HPLC as well as form stability by XRPD.

[5] = Abbreviated stable form screen of Compound I Form V (slurry at room temperature); conditions: for solubility at 3 days: slurry of the solid in solvent, organic solvent or mixture, thermodynamic from solid, solid converted to Form VI
Description: Abbreviated stable form screen of Compound I Four V was performed by slurrying […] (about 100 mg) in IPA, IPAc and MTBE (1-2 mL) in an attempt to obtain anhydrous form as summarized in Table 16. The first aliquot (about 0.5 mL) was taken for XRPD analysis and solubility assessment after 3 days of equilibration at room temperature. Solids were analyzed before and after overnight drying at 45° C. […] After two weeks equilibration at room temperature no form change was observed. XRPD patterns of all samples were consistent with Compound I Form VI.

[6] = under vacuum at 45° C., 2 and 7 days

With “4-(pyrimidin-2-ylmethyl)-7-(4-(trifluoromethoxy)phenyl)-3,4-dihydrobenzo[f][1,4]oxazepin-5(2H)-one edisylate [Compound I Form XVII]” the “Hygroscopicity by DVS (in words)” value [1] was “slightly hygroscopic” and the “Moisture uptake at 90% RH (DVS)” value [1] was “about 1%”.
In the case of `O=C1c2cc(-c3ccc(OC(F)(F)F)cc3)ccc2OCCN1Cc1ncccn1` [Compound I Form III, 4-(pyrimidin-2-ylmethyl)-7-(4-(trifluoromethoxy)phenyl)-3,4-dihydrobenzo[f][1,4]oxazepin-5(2H)-one], the “Form III Solubility mg/g (1 day)” value ([2]; 10% EtOH/water, water activity >0.9) is reported as 0.06 mg/g, the “Form III Solubility mg/g (1 day)” value ([2]; 10% IPA/water, water activity >0.9) is reported as 0.06 mg/g and the “Form III Solubility mg/g (1 day)” value ([2]; 20% EtOH/water, water activity 0.8-0.9) is reported as 0.10 mg/g. The “Form III Solubility mg/g (1 day)” value ([2]; 20% IPA/water, water activity >0.9) was 0.19 mg/g, the “Form III Solubility mg/g (1 day)” value ([2]; 25% IPA/water, water activity >0.9) was 0.78 mg/g and the “Form III Solubility mg/g (1 day)” value ([2]; 30% EtOH/water, water activity 0.8-0.9) was 0.49 mg/g. The “Form III Solubility mg/g (1 day)” value ([2]; 30% IPA/water, water activity >0.9) was 3.2 mg/g, the “Form III Solubility mg/g (1 day)” value ([2]; 35% EtOH/water, water activity 0.8-0.9) was 1.8 mg/g and the “Relative polymorph stability (competition slurry Form I/Form III)” value ([2]; water activities above 0.8, EtOH/water or IPA/water) was “the most stable polymorph of Compound I”.
With `CS(=O)(=O)O.O=C1c2cc(-c3ccc(OC(F)(F)F)cc3)ccc2OCCN1Cc1ncccn1` [Compound I Form IV, 4-(pyrimidin-2-ylmethyl)-7-(4-(trifluoromethoxy)phenyl)-3,4-dihydrobenzo[f][1,4]oxazepin-5(2H)-one methanesulfonic acid] the “Form stability in slurry by XRPD (in words)” value ([3]; 17 solvents, 24 h, similar after 2 weeks, water afforded Form III (wet), Form III + Form II after air drying) was “no form change in all solvents except water”, the solubility at 24 h ([3]; aqueous with cosolvent or surfactant or cyclodextrin, EtOH/water 0.8 water activity (480 μL H2O and 520 μL EtOH), all solids dissolved) was over 150000 µg/mL and the solubility at 24 h ([3]; organic solvent or mixture, 2-Me-THF) was 2300 µg/mL. It also gave a solubility at 24 h ([3]; organic solvent or mixture, Acetone) of 4160 µg/mL, a solubility at 24 h ([3]; organic solvent or mixture, DCM) of 5480 µg/mL and a solubility at 24 h ([3]; organic solvent or mixture, EtOAc) of 1260 µg/mL. For the same compound, the solubility at 24 h ([3]; organic solvent or mixture, EtOH) was 12200 µg/mL, the solubility at 24 h ([3]; organic solvent or mixture, Heptane) was 100 µg/mL and the solubility at 24 h ([3]; organic solvent or mixture, IPA) was 5420 µg/mL. The solubility at 24 h ([3]; organic solvent or mixture, IPAc) was 780 µg/mL, the solubility at 24 h ([3]; organic solvent or mixture, MEK) was 3140 µg/mL and the solubility at 24 h ([3]; organic solvent or mixture, MIBK) was 1420 µg/mL. The solubility at 24 h ([3]; organic solvent or mixture, MTBE) was 340 µg/mL, the solubility at 24 h ([3]; organic solvent or mixture, MeCN) was 4820 µg/mL and the solubility at 24 h ([3]; organic solvent or mixture, MeOH) was 40400 µg/mL. The solubility at 24 h ([3]; organic solvent or mixture, THF) was 7940 µg/mL, the solubility at 24 h ([3]; organic solvent or mixture, Toluene) was 360 µg/mL and the solubility at 24 h ([3]; water, Water, solid converted to Form III (wet)) was 4340 µg/mL. The “HPLC (% AN)” value ([4]; 0 days) was 100 % AN, the XRPD ([4]; 0 days) was “Form IV” and the “HPLC (% ES)” value ([4]; 0 days, theoretical strength 81.21%) was 80.2 % ES. For the same compound, the “HPLC (% AN)” value ([4]; 2 days) was 100 % AN, the XRPD ([4]; 2 days) was “Form IV” and the “HPLC (% ES)” value ([4]; 2 days, theoretical strength 81.21%) was 85.4 % ES. For the same compound, the “HPLC (% AN)” value ([4]; 7 days) was 100 % AN, the XRPD ([4]; 7 days) was “Form IV” and the “HPLC (% ES)” value ([4]; 7 days, theoretical strength 81.21%) was 82.1 % ES. The “Form stability by XRPD during drying (in words)” value [4, 6] was “did not show any form change”, the “HPLC purity during drying” value [4, 6] was 100 % (AUC) and the “HPLC strength during drying” value ([4]; under vacuum at 45° C., 2 and 7 days, theoretical strength 81.21%) was 80 to 85%. For the same compound, the “Hygroscopicity by DVS (in words)” value [1] was “slightly hygroscopic”, the “Moisture uptake at 90% RH (DVS)” value [1] was 1.0 wt % and the “Moisture uptake at 90% RH (DVS)” value ([1]; listed as Form IV) was 1.01 wt % at. The “Hygroscopicity by DVS (in words)” value ([1]; listed as Form IV) was “Slightly”.
In the case of `O=C1c2cc(-c3ccc(OC(F)(F)F)cc3)ccc2OCCN1Cc1ncccn1.O=S(=O)(O)c1ccccc1` [Compound I Form V, 4-(pyrimidin-2-ylmethyl)-7-(4-(trifluoromethoxy)phenyl)-3,4-dihydrobenzo[f][1,4]oxazepin-5(2H)-one benzene sulfonic acid], the “Form stability in slurry by XRPD (in words)” value ([5]; IPA, IPAc and MTBE, 3 days, no further change after two weeks) is reported as “all solids converted to anhydrous Compound I Form VI”, the solubility at 3 days ([5]; IPA) is reported as 16100 µg/mL and the solubility at 3 days ([5]; IPAc) is reported as 2200 µg/mL. For the same compound, the solubility at 3 days ([5]; MTBE) was 460 µg/mL.
For `O=C1c2cc(-c3ccc(OC(F)(F)F)cc3)ccc2OCCN1Cc1ncccn1.O=S(=O)(O)c1ccccc1` [Compound I Form VI, 4-(pyrimidin-2-ylmethyl)-7-(4-(trifluoromethoxy)phenyl)-3,4-dihydrobenzo[f][1,4]oxazepin-5(2H)-one benzene sulfonic acid], the “Hygroscopicity by DVS (in words)” value [1] was “non-hygroscopic”, the “Moisture uptake at 90% RH (DVS)” value [1] was “about 0.1%” and the “Moisture uptake at 90% RH (DVS)” value ([1]; listed as Form VI) was 0.11 wt % at. For the same compound, the “Hygroscopicity by DVS (in words)” value ([1]; listed as Form VI) was “Non-”.
For `CCS(=O)(=O)O.O=C1c2cc(-c3ccc(OC(F)(F)F)cc3)ccc2OCCN1Cc1ncccn1` [Compound I Form XVI, 4-(pyrimidin-2-ylmethyl)-7-(4-(trifluoromethoxy)phenyl)-3,4-dihydrobenzo[f][1,4]oxazepin-5(2H)-one esylate], the “Relative humidity of deliquescence (DVS)” value [1] was “around 90 % RH”.
For `O=C(O)C(=O)O.O=C1c2cc(-c3ccc(OC(F)(F)F)cc3)ccc2OCCN1Cc1ncccn1` [Compound I Form XVIII, 4-(pyrimidin-2-ylmethyl)-7-(4-(trifluoromethoxy)phenyl)-3,4-dihydrobenzo[f][1,4]oxazepin-5(2H)-one oxalate], the “Hygroscopicity by DVS (in words)” value [1] was “non-hygroscopic” and the “Moisture uptake at 90% RH (DVS)” value [1] was “about 0.075%”.
